The source of these data is ChEMBL document CHEMBL5209567, “Membrane potential based assay for SLC2A9 using HEK-293 SLC2A9 OE cells” (2022).

Assay [1] addresses T1, Solute carrier family 2, facilitated glucose transporter member 9 (Homo sapiens, UniProt Q9NRM0).
T1 sequence (Q9NRM0 whole entry): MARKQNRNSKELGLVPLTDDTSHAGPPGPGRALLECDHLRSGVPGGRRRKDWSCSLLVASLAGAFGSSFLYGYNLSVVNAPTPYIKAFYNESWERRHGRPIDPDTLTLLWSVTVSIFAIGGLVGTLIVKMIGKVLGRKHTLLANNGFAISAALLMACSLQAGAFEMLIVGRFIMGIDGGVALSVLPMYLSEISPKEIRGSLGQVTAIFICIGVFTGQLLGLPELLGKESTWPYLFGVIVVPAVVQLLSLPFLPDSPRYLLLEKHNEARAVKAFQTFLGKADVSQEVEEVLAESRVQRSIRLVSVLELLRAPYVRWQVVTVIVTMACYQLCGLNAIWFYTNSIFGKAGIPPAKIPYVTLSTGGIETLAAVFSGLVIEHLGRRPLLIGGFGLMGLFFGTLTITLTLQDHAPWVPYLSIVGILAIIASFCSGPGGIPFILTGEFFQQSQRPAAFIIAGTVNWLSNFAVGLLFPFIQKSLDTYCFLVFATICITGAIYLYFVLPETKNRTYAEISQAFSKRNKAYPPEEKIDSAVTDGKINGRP
As to the kind of experiment: Substrate uptake by the Glucose Transporter Type 9 (GLUT9, SLC2A9) as assessed by the fluorescent FLIPR membrane potential dye in HEK-293 cells stably transfected with SLC2A9 isoform 1 (PubChem AID: 1794831). It is filed as functional, cell-based, HEK293.

The target of assay [2] is T1, Solute carrier family 2, facilitated glucose transporter member 9. The assay is described as follows: Substrate uptake by the Glucose Transporter Type 9 (GLUT9, SLC2A9) as assessed by the fluorescent FLIPR membrane potential dye in HEK-293 cells stably transfected with SLC2A9 isoform 2 (PubChem AID: 1794831). It is filed as functional, cell-based, HEK293.

SMILES strings stand for the structures.

In the case of `O=C(O)c1cc(=O)[nH]c(=O)[nH]1` [OROTIC ACID], the EC50 in assay [1] and in assay [2] (read-out: EC50) was 1 mM throughout.

`Oc1nc(O)c2nc(O)[nH]c2n1` [URIC ACID]: the EC50 was 0.3 mM in assay [1] and “Ec50 Cannot Be Calculated For Isoform 2” in assay [2] (hek293).

Usually EC50 stands for the concentration at which the effect is half-maximal.
